Measurements: ChEMBL document CHEMBL1135320, “Novel phenolic antioxidants as multifunctional inhibitors of inducible VCAM-1 expression for use in atherosclerosis” (Bioorg Med Chem Lett, 2002)
The source made the active and inactive calls. The rule behind the calls is not given here.

Columns and labels:
HASMC [1] = assay: Inhibition of proliferation of human aortic smooth muscle cells at a concentration of 5 uM; NE is no Effect; type: functional, cell-based
[2] = Inhibitory effect in preventing the oxidation of linoleic acid by 15-lipoxygenase at a concentration of 70 uM; type: functional
[3] = Concentration required for 50% inhibition of TNF-alpha inducible Selectin E expression.
Oryctolagus cuniculus = assay: Inhibition of progression of atherosclerosis in aorta after oral dosing in cholesterol fed rabbits; type: functional
HASMC [4] = assay: Inhibition of proliferation of human aortic smooth muscle cells at a concentration of 5 uM; type: functional
Mus musculus = assay: Inhibition of progression of atherosclerosis in aorta after oral dosing in cholesterol fed LDL receptor knockout mice; type: functional
[5] = Concentration required for 50% inhibition of TNF-alpha inducible MCP-1 expression.

Row | Structure (SMILES) | inhibition (HASMC [1]) | inhibition [2] | IC50 [3] | Inhibition (Oryctolagus cuniculus) | inhibition at 5 µM (HASMC [4]) | Inhibition (Mus musculus) | IC50 [5]
1 | CC(C)(Sc1cc(C(C)(C)C)c(O)c(C(C)(C)C)c1)Sc1cc(C(C)(C)C)c(O)c(C(C)(C)C)c1 | inactive | – | – | – | – | – | –
2 | CC(C)(Sc1cc(C(C)(C)C)c(OC(=O)CCC(=O)O)c(C(C)(C)C)c1)Sc1cc(C(C)(C)C)c(OC(=O)CCC(=O)O)c(C(C)(C)C)c1 | – | 85% | – | – | – | – | –
3 | CC(C)(Sc1cc(C(C)(C)C)c(O)c(C(C)(C)C)c1)Sc1cc(C(C)(C)C)c(OC(=O)CCC(=O)O)c(C(C)(C)C)c1 [SUCCINOBUCOL] | – | 85% | 25 µM | 94% | ~50% | 43% | 10 µM
